Reference: the NIST ThermoML archive (doi:10.1016/j.fluid.2004.12.005)

What was measured:
[1] = Solid-liquid equilibrium temperature; conditions: 100 kPa; Crystal; visual observation
[2] = activity coefficient (dimensionless); of the first substance listed, at infinite dilution; xn = mol fraction of the nth substance listed; conditions: Liquid, Chromatography, x1 = 0
[3] = excess molar enthalpy (molar enthalpy of mixing); xn = mol fraction of the nth substance listed; conditions: Liquid, Flow calorimetry

Cc1ccc(C)cc1 [1,4-dimethylbenzene]
Conditions	Solid-liquid equilibrium temperature [K]
[1]	286.45

CC(=O)OC(C)C [1-methylethyl ethanoate] + CCCCCCCCCC
[2]
Conditions	activity coefficient
303.16 K	2.56
313.14 K	2.48
323.17 K	2.41
333.16 K	2.36

CC(=O)OC(C)C [1-methylethyl ethanoate] + CCCCCCCCCCCC
[2]
Conditions	activity coefficient
303.16 K	2.82
313.17 K	2.66
323.2 K	2.52
333.16 K	2.42

c1ccccc1 [benzene]
Conditions	Solid-liquid equilibrium temperature [K]
[1]	278.94

CCCCCCCCCC [decane] + CCOC(C)=O
[3]
Conditions	excess molar enthalpy [kcal/mol]
363.15 K, 1397 kPa, x2 = 0.0952	0.112
363.15 K, 1397 kPa, x2 = 0.1817	0.198
363.15 K, 1397 kPa, x2 = 0.2607	0.261
363.15 K, 1397 kPa, x2 = 0.3332	0.304
363.15 K, 1397 kPa, x2 = 0.3998	0.333
363.15 K, 1397 kPa, x2 = 0.4614	0.349
363.15 K, 1397 kPa, x2 = 0.5183	0.356
363.15 K, 1397 kPa, x2 = 0.5712	0.355
363.15 K, 1397 kPa, x2 = 0.6205	0.347
363.15 K, 1397 kPa, x2 = 0.6665	0.335
363.15 K, 1397 kPa, x2 = 0.7095	0.316
363.15 K, 1397 kPa, x2 = 0.7499	0.292
363.15 K, 1397 kPa, x2 = 0.7878	0.266
363.15 K, 1397 kPa, x2 = 0.8234	0.236
363.15 K, 1397 kPa, x2 = 0.8571	0.202
363.15 K, 1397 kPa, x2 = 0.8888	0.167
363.15 K, 1397 kPa, x2 = 0.9189	0.129
363.15 K, 1397 kPa, x2 = 0.9473	0.0868
363.15 K, 1397 kPa, x2 = 0.9743	0.0437
413.15 K, 1342 kPa, x2 = 0.0952	0.116
413.15 K, 1342 kPa, x2 = 0.1817	0.204
413.15 K, 1342 kPa, x2 = 0.2607	0.268
413.15 K, 1342 kPa, x2 = 0.3332	0.314
413.15 K, 1342 kPa, x2 = 0.3998	0.346
413.15 K, 1342 kPa, x2 = 0.4614	0.363
413.15 K, 1342 kPa, x2 = 0.5183	0.371
413.15 K, 1342 kPa, x2 = 0.5713	0.372
413.15 K, 1342 kPa, x2 = 0.6205	0.363
413.15 K, 1342 kPa, x2 = 0.6665	0.351
413.15 K, 1342 kPa, x2 = 0.7095	0.329
413.15 K, 1342 kPa, x2 = 0.7499	0.306
413.15 K, 1342 kPa, x2 = 0.7878	0.277
413.15 K, 1342 kPa, x2 = 0.8234	0.244
413.15 K, 1342 kPa, x2 = 0.8571	0.209
413.15 K, 1342 kPa, x2 = 0.8888	0.171
413.15 K, 1342 kPa, x2 = 0.9189	0.131
413.15 K, 1342 kPa, x2 = 0.9473	0.0884
413.15 K, 1342 kPa, x2 = 0.9743	0.0466

CCOC(C)=O [ethyl acetate] + CCCCCC
[3]
Conditions	excess molar enthalpy [kcal/mol]
363.15 K, 1583 kPa, x2 = 0.0377	0.042
363.15 K, 1583 kPa, x2 = 0.0764	0.0851
363.15 K, 1583 kPa, x2 = 0.1162	0.128
363.15 K, 1583 kPa, x2 = 0.157	0.164
363.15 K, 1583 kPa, x2 = 0.1989	0.196
363.15 K, 1583 kPa, x2 = 0.242	0.228
363.15 K, 1583 kPa, x2 = 0.2862	0.254
363.15 K, 1583 kPa, x2 = 0.3318	0.275
363.15 K, 1583 kPa, x2 = 0.3786	0.292
363.15 K, 1583 kPa, x2 = 0.4269	0.305
363.15 K, 1583 kPa, x2 = 0.4765	0.309
363.15 K, 1583 kPa, x2 = 0.5277	0.31
363.15 K, 1583 kPa, x2 = 0.5804	0.304
363.15 K, 1583 kPa, x2 = 0.6347	0.291
363.15 K, 1583 kPa, x2 = 0.6908	0.267
363.15 K, 1583 kPa, x2 = 0.7487	0.237
363.15 K, 1583 kPa, x2 = 0.8084	0.197
363.15 K, 1583 kPa, x2 = 0.8702	0.146
363.15 K, 1583 kPa, x2 = 0.934	0.0799
413.15 K, 1376 kPa, x2 = 0.0377	0.0453
413.15 K, 1376 kPa, x2 = 0.0765	0.0863
413.15 K, 1376 kPa, x2 = 0.1162	0.126
413.15 K, 1376 kPa, x2 = 0.1571	0.162
413.15 K, 1376 kPa, x2 = 0.199	0.195
413.15 K, 1376 kPa, x2 = 0.2421	0.224
413.15 K, 1376 kPa, x2 = 0.2864	0.251
413.15 K, 1376 kPa, x2 = 0.332	0.271
413.15 K, 1376 kPa, x2 = 0.3788	0.288
413.15 K, 1376 kPa, x2 = 0.427	0.301
413.15 K, 1376 kPa, x2 = 0.4767	0.305
413.15 K, 1376 kPa, x2 = 0.5279	0.306
413.15 K, 1376 kPa, x2 = 0.5806	0.3
413.15 K, 1376 kPa, x2 = 0.6349	0.288
413.15 K, 1376 kPa, x2 = 0.691	0.266
413.15 K, 1376 kPa, x2 = 0.7488	0.236
413.15 K, 1376 kPa, x2 = 0.8086	0.196
413.15 K, 1376 kPa, x2 = 0.8703	0.144
413.15 K, 1376 kPa, x2 = 0.934	0.0788
